Values joined by “and” are separate entries in the source; they are usually repeats but may differ in a detail not shown here. Equal entries are not always repeated.
Columns and labels:
[1] = Plasma pharmacokinetics of phenolic metabolites after intake of the GCPE nutraceutical (LC-MS-QToF); conditions: for AUC(0-t): AUC0–24h; for Tmax: Tmax (h) or Range; for Cmax: mean ± SEM, n = 9
[2] = Urinary excretion of phenolic metabolites after intake of the GCPE nutraceutical; conditions: for Cumulative urinary excretion, Total 0–24 h / Urinary excretion: urine; for Cumulative urinary excretion, Total 0–24 h: mean ± SEM, n = 9
[3] = human, oral, 300 mg hydroxycinnamic acids, week 0
[4] = human, oral, 300 mg hydroxycinnamic acids, week 8
[5] = human, oral, 300 mg hydroxycinnamic acids, week 0, first peak where biphasic
[6] = human, oral, 300 mg hydroxycinnamic acids, week 8, first peak where biphasic
[7] = human, oral, 300 mg, Cmax, week 0, GCPE nutraceutical with 300 mg hydroxycinnamic acids
[8] = human, oral, 300 mg, Cmax, week 8, GCPE nutraceutical with 300 mg hydroxycinnamic acids
[9] = week 0, GCPE nutraceutical with 300 mg hydroxycinnamic acids
[10] = week 0, first peak where biphasic
[11] = week 8, GCPE nutraceutical with 300 mg hydroxycinnamic acids
[12] = week 8, first peak where biphasic

| Compound | Cumulative urinary excretion, Total 0–24 h ([2]; week 0) | Cumulative urinary excretion, Total 0–24 h ([2]; week 8) | Amount excreted in urine, 0- 3 h ([2]; week 0, interval 0–3 h) [µmol] | Amount excreted in urine, 3-6 h ([2]; week 0, interval 3–6 h) [µmol] | Amount excreted in urine, 6-9 h ([2]; week 0, interval 6–9 h) [µmol] | Amount excreted in urine, 9-11 h ([2]; week 0, interval 9–11 h) [µmol] | Amount excreted in urine, 11-24 h ([2]; week 0, interval 11–24 h) [µmol] | Amount excreted in urine, 0- 3 h ([2]; week 8, interval 0–3 h) [µmol] | Amount excreted in urine, 3-6 h ([2]; week 8, interval 3–6 h) [µmol] | Amount excreted in urine, 6-9 h ([2]; week 8, interval 6–9 h) [µmol] | Amount excreted in urine, 9-11 h ([2]; week 8, interval 9–11 h) [µmol] | Amount excreted in urine, 11-24 h ([2]; week 8, interval 11–24 h) [µmol] | AUC0–24h ([1]; week 0) [µM/min] | Cmax [1, 9] [nM] | Tmax (h) or Range [1, 10] [h] | AUC0–24h ([1]; week 8) [µM/min] | Cmax [1, 11] [nM] | Tmax (h) or Range [1, 12] [h] | Urinary excretion ([2]; week 0) [µmol/24 h] | Urinary excretion ([2]; week 8) [µmol/24 h] | also measured |
| --- | --- | --- | --- | --- | --- | --- | --- | --- | --- | --- | --- | --- | --- | --- | --- | --- | --- | --- | --- | --- | --- |
| COc1ccc(CCC(=O)O)cc1OC [Dihydrodimethoxycinnamic acid, 3-(3′,4′-Dimethoxyphenyl)propanoic acid] | 0.7 ± 0.2 µmol | 0.63 ± 0.08 µmol | 0.08 ± 0.02 | 0.08 ± 0.01 | 0.2 ± 0.1 | 0.09 ± 0.02 | 0.27 ± 0.06 | 0.08 ± 0.01 | 0.06 ± 0.01 | 0.12 ± 0.03 | 0.12 ± 0.04 | 0.25 ± 0.05 |  |  |  |  |  |  |  |  | AUC(0-t) [1, 3]: 1.2 ± 0.1 µM·h; AUC(0-t) [1, 4]: 1.3 ± 0.1 µM·h; Tmax [1, 5]: 4 ± 1 h; Tmax [1, 6]: 10 ± 4 h; Cmax [1, 7]: 110 ± 20 nM; Cmax [1, 8]: 120 ± 10 nM |
| O=C(O)CCc1ccc(OS(=O)(=O)O)c(O)c1 [DHCA-4′-sulfate, 3-(3′-Hydroxyphenyl)propanoic acid-4′-sulfate] | 8 ± 2 µmol | 10 ± 2 µmol | 0.4 ± 0.1 | 0.2 ± 0.04 | 0.5 ± 0.2 | 0.5 ± 0.2 | 2.6 ± 0.8 | 0.6 ± 0.2 | 0.2 ± 0.04 | 0.5 ± 0.1 | 0.6 ± 0.2 | 1.7 ± 0.5 | 2.3 ± 0.5 | 340 ± 90 | 7.9 ± 0.5 | 2.1 ± 0.4 | 330 ± 70 | 8.4 ± 0.6 | 8 | 10 |  |
| COc1cc(C=CC(=O)O)ccc1OS(=O)(=O)O [FA-4′-sulfate, 3′-Methoxycinnamic acid-4′-sulfate] | 32 µmol and 32 ± 5 µmol | 33 µmol and 33 ± 5 µmol | 5 ± 2 | 3.2 ± 0.9 | 7 ± 2 | 3.6 ± 0.7 | 13 ± 2 | 4 ± 2 | 3.4 ± 0.7 | 7 ± 1 | 7 ± 2 | 11 ± 2 | 0.11 ± 0.03 | 17 ± 4 | 0.78 ± 0.09 | 0.13 ± 0.02 | 17 ± 4 | 0.56 ± 0.06 | 32 | 33 | Tmax, second peak ([1]; week 0, biphasic profile): 6.8 ± 0.7 h; Tmax, second peak ([1]; week 8, biphasic profile): 7.2 ± 0.6 h |
| COc1cc(CCC(=O)O)ccc1OS(=O)(=O)O [DHFA-4′-sulfate, 3-(3′-Methoxyphenyl)propanoic acid-4′-sulfate] | 10 ± 2 µmol | 9 ± 2 µmol | 0.5 ± 0.1 | 0.5 ± 0.1 | 3.4 ± 1.2 | 2.1 ± 0.5 | 3.5 ± 0.8 | 0.6 ± 0.1 | 0.8 ± 0.2 | 2 ± 1 | 3 ± 1 | 2.6 ± 0.8 | 1.5 ± 0.7 | 190 ± 80 | 8.1 ± 0.4 | 1.1 ± 0.3 | 170 ± 50 | 8.4 ± 0.6 |  |  |  |
| O=C(O)CNC(=O)c1ccc(O)cc1 [4′-Hydroxyhippuric acid] | 14 ± 2 µmol | 14 ± 2 µmol | 1.3 ± 0.3 | 0.7 ± 0.1 | 1 ± 0.3 | 0.8 ± 0.2 | 3.8 ± 0.9 | 1.5 ± 0.3 | 0.6 ± 0.1 | 1.2 ± 0.2 | 1.1 ± 0.3 | 2.8 ± 0.6 | 1.2 ± 0.2 | 80 ± 10 | 12 ± 3 | 1.3 ± 0.2 | 90 ± 10 | 8 ± 2 |  |  | Amount excreted in urine, TOTAL ([2]; week 0, Table S5 total): 14 ± 2 µmol; Amount excreted in urine, TOTAL ([2]; week 8, Table S6 total): 14 ± 2 µmol |
| COc1cc(CCC(=O)O)ccc1O[C@@H]1O[C@H](C(=O)O)[C@@H](O)[C@H](O)[C@H]1O [DHFA-4′-glucuronide, 3-(3′-Methoxyphenyl)propanoic acid-4′-glucuronide] | 5 ± 1 µmol | 7 ± 1 µmol | 0.15 ± 0.05 | 0.16 ± 0.05 | 1 ± 0.4 | 0.8 ± 0.1 | 1.2 ± 0.2 | 0.21 ± 0.06 | 0.34 ± 0.09 | 1 ± 0.2 | 0.8 ± 0.2 | 1 ± 0.3 | 1.1 ± 0.3 | 130 ± 30 | 8.7 ± 0.6 | 0.8 ± 0.1 | 120 ± 20 | 8.7 ± 0.6 | 5 | 7 |  |
| COc1ccc(/C=C/C(=O)O)cc1O [iFA, 3′-Hydroxy-4′-methoxycinnamic acid] | 1.7 ± 0.2 µmol | 2.1 ± 0.2 µmol | 1 ± 0.2 | 0.35 ± 0.07 | 0.27 ± 0.07 | 0.04 ± 0.03 | 0.04 ± 0.02 | 1.2 ± 0.2 | 0.32 ± 0.04 | 0.39 ± 0.07 | 0.13 ± 0.07 | 0.09 ± 0.04 |  |  |  |  |  |  |  |  | AUC(0-t) [1, 3]: 0.025 ± 0.007 µM·h; AUC(0-t) [1, 4]: 0.043 ± 0.008 µM·h; Tmax [1, 5]: 0.5 ± 0.1 h; Tmax [1, 6]: 0.5 h; AUC(0-t) ([1]; human, oral, 300 mg phenols, week 0): 0.025 µM·h; AUC(0-t) ([1]; human, oral, 300 mg phenols, week 8): 0.043 µM·h; Cmax [1, 7]: 23 ± 6 nM; Cmax [1, 8]: 32 ± 7 nM |

Source: publication PMC9230201, “Sustained Consumption of a Decaffeinated Green Coffee Nutraceutical Has Limited Effects on Phenolic Metabolism and Bioavailability in Overweight/Obese Subjects” (Nutrients, 2022)
